Assay results from publication PMC5520048 (Nature Communications, 2017).

Experiments:
Human albumin = biological target: T1, Human albumin (Homo sapiens, UniProt P02768); experiment: Fluorescence polarization albumin binding assay, purified human albumin
T1 construct: purchased Sigma-Aldrich A1653
Procedure: Forty-five microlitre of the dilutions were added to 15 μl of fluorescent peptide (100 nM) in black 96-well half area microtitre plates. […] The final concentration of fluorescent peptide was 25 nM in all wells. Fluorescence anisotropy was measured with an Infinite M200Pro plate reader (Tecan) using an excitation filter at 485 nm and an emission filter at 535 nm. Dissociation constant (KD) were determined by nonlinear regression analysis of anisotropy versus the total concentration of proteins [P]T using the following equation: […]
A is the experimental fluorescence anisotropy. Af and Ab are the fluorescence anisotropy for the free and the fully bound fluorescent ligand, respectively. [L]T and [P]T represent the total fluorescent ligand and protein concentration, respectively. KD is the dissociation constant for the binding equilibrium. Values were calculated with Prism 5 (GraphPad software).

[1] = biological target: insulin detemir (Homo sapiens) (UniProt P01308); details: cited from earlier work
albumin = details: cited from earlier work
[2] = applied intravenously; cited from earlier work

insulin detemir (Homo sapiens), sequence (F8WCM5 25-53, chain 1 of 2): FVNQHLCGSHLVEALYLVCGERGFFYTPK
insulin detemir (Homo sapiens), sequence (P01308 90-110, chain 2 of 2): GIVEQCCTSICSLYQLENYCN

Q: Which “improvement of Kd compared to the starting peptide-palmitoyl tag” value (Human albumin) does the source give for (F)-EYEKpalmEYE [tag] here?
A: Its value is 27 fold.

Q: With albumin (from UniProt P02768) as the substance, how does the Kd [1] read?
A: Its Kd is 4.2 µM.

Q: With insulin degludec as the substance, how does the “higher affinity for albumin than insulin detemir” value (albumin) read?
A: Its value is 2.4 fold.

Q: Which half-life [2] does the source give for oxytocin here?
A: The half-life was 10 to 15 min.
